Measured values taken from ChEMBL document CHEMBL1201862, “PubChem BioAssay data set” (2004).
Each block holds one compound with its values, some of them ahead of it. Active and inactive are the calls of the source.

Tests used:
[1] = viability loss of HPDE-C7K cells – cell-based, fluorescence, HTS, primary screen (AID 431); assay type: functional; conditions: Homo sapiens
[2] = viability of PTEN-deleted HCT116 cells – cell-based, HCT116 PTEN knockout, dose response (AID 1047); assay type: functional;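 also: HCT116 colon tumor cells with PTEN knocked out; cells exposed to compound for 60 hours before readout; potency for loss of cell viability measured by luminescence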
H9c2 = assay: cells; assay type: functional, cell-based; conditions: Rattus norvegicus, H9c2, Myocardium;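 also: confirmatory concentration-response retest of ultra-high-throughput screening hits for modulation of myocardial damage; cell death induced by hydrogen peroxide oxidative stress; compound pretreatment for 60 min then peroxide exposure for 2 h; potency is for protecting the cells against peroxide damage rather than for killing them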
[3] = viability of HCT116 lacking mutant beta-catenin – cell-based, human colon tumor, dose response (AID 1045); assay type: functional;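 also: HCT116 colon tumor cells with beta catenin knocked out; cells exposed to compound for 60 hours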
[4] = HPDE-C7 pancreatic duct cell viability loss – fluorescence, HTS (AID 430); assay type: functional, cell-based; conditions: Homo sapiens
[5] = rise of 4N DNA cells, HeLa – IC50, dose response (AID 1117351); assay type: functional, cell-based
[6] = rise of 2N DNA cells, HeLa – IC50, dose response (AID 1117349); assay type: functional, cell-based
Estrogen receptor beta [7] = target: T1, Estrogen receptor beta (Homo sapiens, UniProt Q92731);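 also: recombinant ER-beta bound to coactivator SRC1 peptide in presence of estradiol agonist; inhibitors block coactivator peptide binding and lower the FRET signal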
Estrogen receptor beta [8] = target: T1, Estrogen receptor beta; assay: blockers of SRC-3 recruitment to ERβ – biochemical, ELISA, streptavidin-HRP readout, orthogonal assay, confirmation (AID 1060)
[9] = target: Induced myeloid leukemia cell differentiation protein Mcl-1 (Homo sapiens, UniProt Q07820); assay type: functional
[10] = viability of uninfected HEp-2 cells – cell-based, HTS, cytotoxicity control for RSV inhibitor project, dose response (AID 2410); assay type: functional; conditions: human respiratory syncytial virus
cells [11] = assay: cells
[12] = Dd2 parasite growth inhibition in erythrocytes – SYBR Green, dry powder samples, set 9, dose response (AID 1159568); assay type: functional, cell-based
Estrogen receptor = target: T2, Estrogen receptor (Homo sapiens, UniProt P03372);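 also: potency for inhibiting coactivator peptide recruitment to the receptor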
T2 sequence (P03372 whole entry): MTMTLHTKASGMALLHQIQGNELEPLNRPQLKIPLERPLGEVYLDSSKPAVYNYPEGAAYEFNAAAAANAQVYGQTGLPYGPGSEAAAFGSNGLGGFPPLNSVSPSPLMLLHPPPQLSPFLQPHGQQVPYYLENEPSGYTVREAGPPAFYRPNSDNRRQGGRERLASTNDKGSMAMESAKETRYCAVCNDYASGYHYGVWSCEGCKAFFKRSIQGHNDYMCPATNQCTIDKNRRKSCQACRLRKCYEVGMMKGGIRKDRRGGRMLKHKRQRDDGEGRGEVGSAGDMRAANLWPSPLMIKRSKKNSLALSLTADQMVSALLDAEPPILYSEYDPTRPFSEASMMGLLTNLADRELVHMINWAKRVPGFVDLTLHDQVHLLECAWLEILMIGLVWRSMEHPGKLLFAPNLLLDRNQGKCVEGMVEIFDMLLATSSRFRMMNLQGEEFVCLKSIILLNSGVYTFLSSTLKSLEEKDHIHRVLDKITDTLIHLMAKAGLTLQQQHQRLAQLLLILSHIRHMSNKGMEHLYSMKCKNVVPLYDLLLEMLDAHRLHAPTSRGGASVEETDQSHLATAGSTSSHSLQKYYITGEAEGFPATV

cells [13] = assay: cells; remark: listed apart in the source
[14] = target: T3, Short transient receptor potential channel 4 (Mus musculus, UniProt Q9QUQ5); assay: block of DAMGO-driven TRPC4 calcium entry – cell-based, HEK293 TRPC4/mu-opioid, Fluo-4 calcium, dose response (AID 434942); assay type: functional;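 also: potency of inhibitors blocking the TRPC4 calcium response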
T3 sequence (Q9QUQ5 whole entry): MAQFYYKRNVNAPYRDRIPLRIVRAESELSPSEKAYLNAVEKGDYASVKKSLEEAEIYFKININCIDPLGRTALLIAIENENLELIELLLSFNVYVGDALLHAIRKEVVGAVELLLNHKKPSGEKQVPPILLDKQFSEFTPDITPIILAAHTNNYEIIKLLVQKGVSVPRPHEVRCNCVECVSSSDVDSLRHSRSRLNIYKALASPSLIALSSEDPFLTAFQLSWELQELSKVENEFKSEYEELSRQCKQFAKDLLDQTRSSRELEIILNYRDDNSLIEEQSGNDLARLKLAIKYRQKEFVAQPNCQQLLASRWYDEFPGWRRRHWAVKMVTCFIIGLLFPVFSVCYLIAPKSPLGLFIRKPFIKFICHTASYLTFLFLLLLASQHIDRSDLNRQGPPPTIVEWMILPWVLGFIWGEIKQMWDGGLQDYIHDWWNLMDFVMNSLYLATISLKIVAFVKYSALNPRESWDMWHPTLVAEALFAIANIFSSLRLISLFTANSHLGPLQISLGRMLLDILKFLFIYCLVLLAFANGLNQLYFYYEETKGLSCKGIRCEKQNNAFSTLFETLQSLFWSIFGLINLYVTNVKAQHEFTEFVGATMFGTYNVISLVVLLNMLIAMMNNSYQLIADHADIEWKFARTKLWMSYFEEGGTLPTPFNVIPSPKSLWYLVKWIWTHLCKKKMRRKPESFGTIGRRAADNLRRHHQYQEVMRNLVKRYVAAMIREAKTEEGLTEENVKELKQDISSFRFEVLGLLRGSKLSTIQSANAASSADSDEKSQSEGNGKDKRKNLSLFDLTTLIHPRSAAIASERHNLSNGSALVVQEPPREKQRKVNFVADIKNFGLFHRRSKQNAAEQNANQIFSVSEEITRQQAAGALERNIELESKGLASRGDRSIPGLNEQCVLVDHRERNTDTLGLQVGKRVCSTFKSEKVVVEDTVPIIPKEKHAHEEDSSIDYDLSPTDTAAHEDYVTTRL

[15] = Trypanosoma cruzi growth suppression in host cells – NIH3T3 host cells, beta-gal luminescence, confirmation (AID 2044); assay type: functional, cell-based;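 also: intracellular parasites grown in NIH/3T3 mouse fibroblasts as host cells; luminescent beta-galactosidase reporter signal from transgenic T. cruzi replicating inside host cells; inhibitors lower the luminescence signal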
[16] = NIH3T3 cell viability loss – ATP luminescence, mouse fibroblasts, counter-screen, dose response (AID 2010); assay type: functional, cell-based;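 also: cells exposed to compound for about 90 hours before reading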
[17] = target: Glyceraldehyde-3-phosphate dehydrogenase (Homo sapiens, UniProt P04406)
[18] = IGROV1 cell killing – plate reader, dry powder samples, PAX8 inhibitor project, dose response (AID 743043); assay type: functional, cell-based; conditions: IGROV-1
Paired box protein Pax-8 = Paired box protein Pax-8 (Homo sapiens, UniProt Q06710); assay: PAX8 transcriptional activity inhibition in RMG-I – RMG-I cells, luciferase, cherry-pick, dose response (AID 687027); assay type: functional, cell-based;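 also: luciferase reporter driven by Pax8 target thyroperoxidase promoter measured by SteadyGlo luminescence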
[19] = OVCAR-3 cell viability loss – plate reader, dry powder samples, PAX8 inhibitor project, dose response (AID 743044); assay type: functional, cell-based
[20] = toxicity toward immortalized ovarian surface epithelium – cell-based, plate reader, dry powder samples, cytotoxicity control for PAX8 inhibitor project, dose response (AID 743045); assay type: functional
[21] = OVCAR8 cell viability loss – plate reader, dry powder samples, PAX8 project, dose response (AID 743197); assay type: functional, cell-based; conditions: OVCAR-8
[22] = target: T4, Polyadenylate-binding protein 1 (Homo sapiens, UniProt P11940); assay: MLLE binding blockers, Cy5 peptide tracer – biochemical, fluorescence polarization, Cy5-PAM2 peptide, secondary, miRNA deadenylation inhibitor project, dose response (AID 602260); assay type: functional; conditions: read-out: IC50_Mean
[23] = target: T4, Polyadenylate-binding protein 1; assay: MLLE domain peptide-binding blockers, IC50 – biochemical, fluorescence polarization, FITC-PAM2 peptide, dose response (AID 602259); assay type: functional; conditions: read-out: IC50_Mean
[24] = target: FAD-linked sulfhydryl oxidase ALR (Homo sapiens, UniProt P55789); assay: ALR-catalysed DTT oxidation blockers – biochemical, H2O2 detection, luminescence, cherry-pick, dose response (AID 493248)
Chain of FAD-linked sulfhydryl oxidase ALR (P55789 whole entry): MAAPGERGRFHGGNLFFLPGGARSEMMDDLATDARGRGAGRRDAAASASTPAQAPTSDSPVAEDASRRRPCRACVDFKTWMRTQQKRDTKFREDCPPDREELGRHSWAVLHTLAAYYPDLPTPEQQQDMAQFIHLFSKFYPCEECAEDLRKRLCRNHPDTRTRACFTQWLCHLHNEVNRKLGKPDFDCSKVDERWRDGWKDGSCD

T1 sequence (Q92731 whole entry): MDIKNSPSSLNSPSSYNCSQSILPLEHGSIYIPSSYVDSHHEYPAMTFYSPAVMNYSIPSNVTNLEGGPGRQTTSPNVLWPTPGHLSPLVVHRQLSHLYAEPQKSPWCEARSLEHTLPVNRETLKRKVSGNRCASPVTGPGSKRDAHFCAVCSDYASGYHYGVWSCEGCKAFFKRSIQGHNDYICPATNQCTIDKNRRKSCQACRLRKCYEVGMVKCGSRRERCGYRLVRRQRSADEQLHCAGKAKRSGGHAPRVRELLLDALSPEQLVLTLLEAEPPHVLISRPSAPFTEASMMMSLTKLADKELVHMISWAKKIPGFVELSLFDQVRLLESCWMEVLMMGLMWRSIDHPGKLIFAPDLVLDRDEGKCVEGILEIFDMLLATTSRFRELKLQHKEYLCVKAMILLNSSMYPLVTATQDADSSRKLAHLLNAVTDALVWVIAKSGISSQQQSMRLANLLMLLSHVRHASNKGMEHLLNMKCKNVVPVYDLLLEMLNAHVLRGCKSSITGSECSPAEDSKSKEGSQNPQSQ
Chain of Glyceraldehyde-3-phosphate dehydrogenase (P04406 whole entry): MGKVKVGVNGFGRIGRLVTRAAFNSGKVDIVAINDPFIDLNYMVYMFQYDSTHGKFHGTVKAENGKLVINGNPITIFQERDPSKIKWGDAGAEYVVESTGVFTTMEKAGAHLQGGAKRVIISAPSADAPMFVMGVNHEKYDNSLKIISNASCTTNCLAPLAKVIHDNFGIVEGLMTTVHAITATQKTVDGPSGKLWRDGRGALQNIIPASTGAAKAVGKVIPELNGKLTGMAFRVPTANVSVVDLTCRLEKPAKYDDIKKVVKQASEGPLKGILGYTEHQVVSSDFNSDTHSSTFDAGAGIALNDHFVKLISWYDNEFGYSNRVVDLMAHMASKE
Chain of Induced myeloid leukemia cell differentiation protein Mcl-1 (Q07820 whole entry): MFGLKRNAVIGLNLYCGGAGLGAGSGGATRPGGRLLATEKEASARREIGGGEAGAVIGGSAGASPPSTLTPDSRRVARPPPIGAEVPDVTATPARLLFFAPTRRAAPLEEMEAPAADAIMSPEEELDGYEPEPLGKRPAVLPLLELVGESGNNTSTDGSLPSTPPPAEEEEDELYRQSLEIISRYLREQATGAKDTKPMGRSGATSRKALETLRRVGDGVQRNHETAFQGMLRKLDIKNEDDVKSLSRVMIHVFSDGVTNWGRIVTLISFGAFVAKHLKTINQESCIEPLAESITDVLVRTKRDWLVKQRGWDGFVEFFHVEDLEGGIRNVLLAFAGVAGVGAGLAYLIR
T4 sequence (P11940 whole entry, the tested form may be a part): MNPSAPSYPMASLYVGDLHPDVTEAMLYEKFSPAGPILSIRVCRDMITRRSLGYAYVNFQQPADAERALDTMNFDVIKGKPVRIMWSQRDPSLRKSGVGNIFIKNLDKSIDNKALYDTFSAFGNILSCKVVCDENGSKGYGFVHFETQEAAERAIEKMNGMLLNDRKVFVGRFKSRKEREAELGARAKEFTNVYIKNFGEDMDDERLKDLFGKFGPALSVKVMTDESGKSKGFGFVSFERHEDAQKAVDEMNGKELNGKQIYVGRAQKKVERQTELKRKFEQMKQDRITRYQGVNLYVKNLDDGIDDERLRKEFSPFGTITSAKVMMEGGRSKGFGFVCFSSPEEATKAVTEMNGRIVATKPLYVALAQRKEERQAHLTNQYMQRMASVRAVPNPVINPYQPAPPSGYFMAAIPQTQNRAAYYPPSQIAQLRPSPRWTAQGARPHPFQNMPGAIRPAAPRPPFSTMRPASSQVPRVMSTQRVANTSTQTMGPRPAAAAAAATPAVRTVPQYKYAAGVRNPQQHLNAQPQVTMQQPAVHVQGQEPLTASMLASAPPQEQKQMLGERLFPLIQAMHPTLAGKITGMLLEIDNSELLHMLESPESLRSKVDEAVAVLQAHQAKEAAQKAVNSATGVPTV
Chain of Paired box protein Pax-8 (Q06710 whole entry): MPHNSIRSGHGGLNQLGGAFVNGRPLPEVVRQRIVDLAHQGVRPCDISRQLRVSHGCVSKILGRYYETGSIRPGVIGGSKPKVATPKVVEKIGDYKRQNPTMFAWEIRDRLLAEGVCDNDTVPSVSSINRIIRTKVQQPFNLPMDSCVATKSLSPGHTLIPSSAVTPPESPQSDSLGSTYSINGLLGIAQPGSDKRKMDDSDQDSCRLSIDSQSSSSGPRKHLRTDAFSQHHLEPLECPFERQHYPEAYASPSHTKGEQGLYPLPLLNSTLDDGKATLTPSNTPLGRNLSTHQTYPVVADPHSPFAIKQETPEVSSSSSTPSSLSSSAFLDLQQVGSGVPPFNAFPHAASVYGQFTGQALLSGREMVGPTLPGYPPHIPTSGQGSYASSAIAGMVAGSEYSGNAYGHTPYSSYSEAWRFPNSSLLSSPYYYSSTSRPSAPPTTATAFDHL

SMILES: C=CCn1cnc2c(c1=O)c1nc3ccccc3nc1n2/N=C/c1cc(OC)c(OC)c(OC)c1
EC50 [1]: 5.68 µM (active) | EC50 [2]: 4.4 µM (active) | IC50 (H9c2): > 79 µM (inactive) | EC50 [3]: 4.67 µM (active) | EC50 [4]: 11.2 µM (active)

SMILES: CC(=O)Nc1ccn(C2COC(COC(=O)c3ccccc3)O2)c(=O)n1 (stereo unspecified)
IC50 [5]: > 10 µM (inactive) | IC50 [6]: > 10 µM (inactive)

SMILES: O=C(CCN1CCc2ccccc2C1)c1ccc2c(c1)OCCO2
EC50 [1]: 11.5 µM (active) | EC50 [4]: 9.07 µM (active)

SMILES: CO[C@@H]1[C@@H](OC)[C@H](C)[C@@](O)(CC(=O)O)O[C@H]1[C@H](C)[C@H]1O[C@@]2(CC[C@@](C)([C@H]3CC[C@@](C)([C@@H]4O[C@@H]([C@H]5O[C@](C)(O)[C@H](C)C[C@@H]5C)C[C@@H]4OC4C[C@H](OC)[C@@H](OC)[C@H](C)O4)O3)O2)C[C@H](O)[C@H]1C (stereo partly specified)
IC50 [5]: > 10 µM (inactive) | IC50 [6]: > 10 µM (inactive)

IC50 (Estrogen receptor beta [7]): 20.6 µM (active) | IC50 (Estrogen receptor beta [8]): 14 µM (not active)
SMILES: O=S(=O)(NCC(O)COCc1ccco1)c1cccs1 (stereo unspecified)

IC50 [9]: 2.18 µM (active)
SMILES: CCN(CC)c1nc2c3c(nc4c(c3c1C#N)CC(=O)N4c1ccc(Cl)cc1)NC(C)=N2

SMILES: O=[N+]([O-])c1cc(C(F)(F)F)ccc1N1CCC(O)CC1
CC50 [10]: 47.2 µM (active) | IC50 (cells [11]): 19.8 µM (active)

SMILES: COc1ccc(-c2ccccc2[C@@H]2[C@@H](C#N)N(C(=O)NC3CCCCC3)[C@H]2CO)cc1
AC50 [12]: 7.06 µM (active)

IC50 (Estrogen receptor): 13.9 µM (active) | IC50 (Estrogen receptor beta [7]): 6.5 µM (active) | IC50 (Estrogen receptor beta [8]): 46.7 µM (not active)
SMILES: CCOC(=O)Cc1cc(O)n2nc(-c3ccc(C)cc3)cc2n1

SMILES: C[C@@H]1CCCCO[C@@H](CN(C)S(=O)(=O)c2ccc(F)cc2)[C@@H](C)CN([C@@H](C)CO)C(=O)c2cc(N(C)C)ccc2O1
AC50 [12]: 2.56 µM (active)

SMILES: COC(=O)C1=C(C)N(Cc2ccccc2)C(=O)N[C@H]1c1cccc(C(F)(F)F)c1
CC50 [10]: 32.9 µM (active) | IC50 (cells [11]): 8.17 µM (active)

SMILES: CC(C)(C)CC(=O)NC(=S)NCCc1ccccc1
CC50 [10]: 39.4 µM (active) | IC50 (cells [11]): 18.4 µM (active)

SMILES: CN(CC1CCCN(CCc2cccc(C(F)(F)F)c2)C1)C(=O)c1cc2ccccc2o1 (stereo unspecified)
EC50 (cells [13]): 0.082 µM (active) | EC50 [14]: 0.668 µM (active) | EC50 [15]: < 0.1 µM (active) | EC50 [16]: 8.57 µM (active)

IC50 [17]: > 50 µM (inconclusive)
SMILES: CN(C)C1=C(Cl)C(=O)N(c2cccc(C(F)(F)F)c2)C1=O

IC50 [17]: > 100 µM (not active)
SMILES: COc1cc(S(=O)(=O)Nc2cccnc2)c(OC)cc1Cl

SMILES: Cc1ccc2nc(N(CCCN(C)C)C(=O)c3cc4ccccc4oc3=O)sc2c1
EC50 (cells [13]): 0.116 µM (active) | EC50 [15]: < 0.1 µM (active) | EC50 [16]: > 60 µM (not active)

SMILES: Cc1ccc(S(=O)(=O)N(C)C[C@H]2Oc3cc(C#Cc4ccncc4)ccc3S(=O)(=O)N([C@@H](C)CO)C[C@H]2C)cc1
AC50 [18]: 45.3 µM (active) | AC50 (Paired box protein Pax-8): 3.15 µM (active) | AC50 [19]: 4.57 µM (active) | AC50 [20]: 51.6 µM (active) | AC50 [21]: 30.8 µM (active)

IC50 (Estrogen receptor): 21.2 µM (active) | IC50 (Estrogen receptor beta [7]): 6.51 µM (active) | IC50 (Estrogen receptor beta [8]): > 109 µM (not active)
SMILES: O=C(CSc1nnc(SCC(=O)c2ccco2)s1)c1ccco1

SMILES: O=S(=O)(c1cccs1)N1CCCCN2[C@H](CO)[C@H](c3ccc(/C=C/c4ccccc4)cc3)[C@H]2C1
AC50 [12]: 3.42 µM (active)

IC50 (Estrogen receptor beta [7]): > 50 µM (not active) | IC50 [22]: > 66 µM (inactive) | IC50 [23]: > 66 µM (inactive) | IC50 (Estrogen receptor beta [8]): 101 µM (not active)
SMILES: Nc1nc(-c2ccco2)c(-c2ccco2)s1

IC50 [9]: 5.07 µM (active) | AC50 [24]: 1.24 µM (active)
SMILES: O=C(CN1CCN(c2ccc(O)cc2)CC1)Nc1cc([N+](=O)[O-])ccc1Cl

IC50 [17]: > 100 µM (not active)
SMILES: Cc1ccc(C2=NC(=O)/C(=C/C=C/c3ccc([N+](=O)[O-])o3)S2)cc1

SMILES: C[C@@H]1CN([C@H](C)CO)C(=O)c2cccc(NC(=O)c3ccc(-c4nccs4)cc3)c2O[C@H]1CN(C)C(=O)Nc1ccc(C(F)(F)F)cc1
AC50 [12]: 7.49 µM (active)
